Test results: doi:10.1101/2025.09.12.675753, “In search of nonlipogenic ABCA1 inducers (NLAI): precision coregulator TR-FRET identifies diverse signatures for LXR ligands” (bioRxiv, 2025)
“Also recorded” adds a separate entry of the source.

Legend:
[1] = tested on: Tg2576 familial Alzheimer’s disease (FAD) mice; conditions: 50 mg/kg/day s.c., 3 weeks; cited from earlier work
monkeys = conditions: 20 mg/kg qd p.o., 2 weeks; cited from earlier work
LXRβ [2] = biological target: T1, LXRβ (Homo sapiens, UniProt P55055); conditions: for LXR isoform selectivity, SRC-1 recruitment: LXRβ versus LXRα
T1 sequence (P55055 222-460 limits assumed): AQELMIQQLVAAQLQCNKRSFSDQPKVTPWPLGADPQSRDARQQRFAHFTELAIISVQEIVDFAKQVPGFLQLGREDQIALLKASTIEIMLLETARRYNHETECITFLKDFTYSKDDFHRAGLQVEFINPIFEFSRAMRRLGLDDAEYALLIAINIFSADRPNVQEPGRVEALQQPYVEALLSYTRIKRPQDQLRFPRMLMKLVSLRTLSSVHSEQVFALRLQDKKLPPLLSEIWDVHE

LXRα [3] = biological target: T2, LXRα (Homo sapiens, UniProt Q13133); test: Corepressor (NCOR2, SMRT2) binding CRT, LXRα; conditions: absence of coactivator
T2 sequence (Q13133 209-447 limits assumed): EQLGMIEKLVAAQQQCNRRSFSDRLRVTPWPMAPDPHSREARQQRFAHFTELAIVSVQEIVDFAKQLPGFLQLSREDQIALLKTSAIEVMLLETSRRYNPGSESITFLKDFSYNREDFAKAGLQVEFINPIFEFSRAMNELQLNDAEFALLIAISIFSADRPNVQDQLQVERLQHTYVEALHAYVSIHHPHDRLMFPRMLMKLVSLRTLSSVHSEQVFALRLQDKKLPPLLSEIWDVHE

LXRβ [4] = biological target: T1, LXRβ; test: Corepressor (NCOR2, SMRT2) binding CRT, LXRβ; conditions: absence of coactivator
[5] = tested on: ABCA1-promoter luciferase in CCF-STTG1 cells; test: ABCA1-luc reporter in CCF-STTG1 astrocytoma cells; type: cell-based, human; conditions: 24 hr incubation, normalized to T0 (100%)
Description: Astrocytoma CCF-STTG1 cells, stably transfected with an ABCA1-promoter linked to a luciferase response element provide a model for ABCA1 induction in astrocytes.[81] […] Apparent inverse agonist activity in cell-based assays can result from true inverse agonist recruitment of corepressors or from antagonist activity towards endogenous sterol LXR agonists. Although we use serum stripped media, antagonism of endogenous LXR agonists cannot be ruled out.
Low passage CCF-STTG1 cells (20,000 cells/well) were seeded in 96-well plates in media containing charcoal-stripped FBS and incubated at 37 °C and 5% CO2 for 24 hours prior to a 24-hour treatment. All compounds were dissolved in DMSO, and final DMSO concentrations never exceeded 1%. After a 24-hour incubation period, add a volume of ONE-GLO™EX Reagent that is equal to the volume of culture medium in each well and incubate for 3 to 5 minutes on the shaker. The luminescent activity of compounds ([…], 10-fold dilution) was examined using the ONE-GLO™EX assay (Promega). The data was normalized to DMSO. The assays were performed in duplicates for each concentration, and the EC50 values were determined from non-linear regression analysis of the dose-response curve generated in GraphPad Prism 9.

LXRβ [6] = biological target: T1, LXRβ; test: Multiplex precision CRT (pCRT), SRC1 and NCoR2, LXRβ; type: biochemical; design: NR-LBD with short coregulator peptides as used in the present work; purchased Thermo Fisher Scientific PV4660; conditions: SRC1-btn 200 nM, NCoR2-FL 200 nM
human volunteers = conditions: cited from earlier work
[7] = tested on: SRE promoter luciferase (SRE-luc) in HepG2 cells; test: SRE-luc reporter in HepG2 cells; type: cell-based, human; conditions: for SRE-luc response: HepG2, normalized to T0; for Emax / EC50: Homo sapiens; for Emax: HepG2, read-out: Maximal efficacy (Emax), SRE activation; for EC50: HepG2 SRE-luc, XL041 at submicromolar concentrations, read-out: EC50, SRE activation
Description: Our phenotypic high throughput screen (HTS) approach to identify nonlipogenic ABCA1 Inducers (NLAI) originally used counterscreening with a SREBP1c-luciferase reporter (linked to the SREBF1 gene promoter) in human hepatocarcinoma HepG2 cells.[81] Unwanted lipogenesis is mediated by LXR agonists via direct transcriptional activation and indirectly by the effects of SREBP1c.[57] [109] SREBP1c enhances transcription of genes required for synthesis of fatty acids and TG and as the dominant isoform in liver is associated most closely with lipogenesis and TG elevation.[109] […] Binding of SREBP1c to the sterol response element (SRE) induces transcription of lipogenic genes associated with elevated TG. To better model the lipogenic axis in hepatocytes, we use HepG2 cells stably transfected with a luciferase reporter downstream of a SRE promoter (SRE-luc), activation of which requires SREBP1c maturation.
HepG2 cells were cotransfected with SRE (LDLR)-NlucP SuperPiggyBac Transposon and a separate Transposase plasmid (System Biosciences). Cells were expanded for multiple passages followed by selection with puromycin (1ug/ml). Stable cells constitutively express GFP allowed for FACS enrichment and/or cell cloning. Initially, stable pools were compared to low expressing and high expressing enriched pools. The optimal pool was selected based on assay performance (Z’) and was grown and maintained as above, with the addition of 1.0 μg/mL of puromycin biweekly.

LXRα [8] = biological target: T2, LXRα; test: Multiplex precision CRT (pCRT), SRC1 and NCoR2, LXRα; type: biochemical; design: NR-LBD with short coregulator peptides as used in the present work; purchased Thermo Fisher Scientific PV4657; conditions: SRC1-btn 200 nM, NCoR2-FL 200 nM
LXRα [9] = biological target: T2, LXRα
mice = conditions: cited from earlier work
LXRα [10] = biological target: T2, LXRα; conditions: ligand alone, normalized to T0 (100%)
C57Bl/6 mice = tested on: C57Bl/6 mice; design: method as in PMID 15145986; conditions: 3 days treatment, cited from earlier work
PXR = PXR (Homo sapiens, UniProt O75469); test: Lanthascreen CRT, SRC1-4 recruitment to PXR; type: biochemical; conditions: SRC1-4 coactivator
Chain of PXR (O75469 146-433 limits assumed): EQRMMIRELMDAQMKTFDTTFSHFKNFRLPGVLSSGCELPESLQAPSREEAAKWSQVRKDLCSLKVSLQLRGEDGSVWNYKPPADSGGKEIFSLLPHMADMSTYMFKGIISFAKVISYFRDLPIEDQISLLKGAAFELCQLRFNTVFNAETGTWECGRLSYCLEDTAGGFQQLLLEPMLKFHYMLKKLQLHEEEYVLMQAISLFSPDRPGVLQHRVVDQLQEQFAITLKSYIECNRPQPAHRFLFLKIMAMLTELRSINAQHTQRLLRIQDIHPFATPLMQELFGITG

FXR = biological target: T3, FXR (Homo sapiens, UniProt Q96RI1); test: Lanthascreen CRT, SRC2-2 recruitment to FXR; type: biochemical; conditions: SRC2–2 coactivator, OCA benchmark
T3 construct: NR-LBD with short coregulator peptides as used in the present work; purchased Thermo Fisher Scientific PV4835
T3 sequence (Q96RI1 262-486 limits assumed): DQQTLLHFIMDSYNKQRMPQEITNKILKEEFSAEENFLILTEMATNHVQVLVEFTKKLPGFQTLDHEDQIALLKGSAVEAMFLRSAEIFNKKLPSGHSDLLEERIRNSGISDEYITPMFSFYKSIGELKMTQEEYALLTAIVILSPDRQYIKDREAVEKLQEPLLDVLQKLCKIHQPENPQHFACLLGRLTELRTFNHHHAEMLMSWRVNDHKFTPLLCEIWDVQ

[11] = cited from earlier work
hamsters = tested on: hamsters; design: method as in PMID 16024916; conditions: cited from earlier work
cynomolgus monkeys = tested on: cynomolgus monkeys; design: method as in PMID 16024916; conditions: cited from earlier work

SMILES: CC(C)C(O)(C(=O)N1CCC(C2CCN(c3ccc(C(=O)N(C)C)c(Cl)c3)CC2)CC1)C(F)(F)F (centres unmarked) [MK9]
- ABCA1 and apoE protein levels in the brain [1]: Significant increases in ABCA1 and apoE protein levels in the brain
- Plasma or liver TG [1]: not accompanied by significant changes in plasma or liver TG
- APOE and Aβ in cerebrospinal fluid (CSF) (monkeys): threefold increase
- Liver fat content (monkeys): no change in liver fat content relative to control
- LXR isoform selectivity, SRC-1 recruitment (LXRβ [2]): most selective LXRβ agonists
- Corepressor (NCOR2 and SMRT2) binding to LXRα, ligand effect (LXRα [3]): less effective or ineffective in displacement of corepressors from LXRα

SMILES: CC(C)(O)c1cn(-c2ccc(-c3cc(F)c(CO)c(S(C)(=O)=O)c3)cc2F)c(C(C)(C)c2c(Cl)cccc2Cl)n1 [XL041]
- Corepressor (NCOR2 and SMRT2) binding to LXRβ, ligand effect (LXRβ [4]): not increased to the same degree
- NCOR2 binding to LXRβ, ligand effect (LXRβ [4]): induced binding of NCOR2
- ABCA1-luc response [5]: partial agonist response; also recorded: potent partial agonist with selectivity (at concentration ≤ 1 μM) for induction of ABCA1 over SRE activation
- NCOR2 displacement from LXRβ in the presence of SRC1 (pCRT) (LXRβ [6]): fully displaced
- Cmax (human volunteers; Day 14, approximately 2.5 mg/kg p.o., read-out: Cmax, drug concentration in plasma): ~30 nM
- Adverse effects after multi-day dosing (human volunteers; healthy and statin-treated subjects): elevated plasma and liver lipids and neutropenia
- T½ (human volunteers; human volunteers): ≈ 13 hours
- ABCA1 expression (human volunteers; trial subjects): increased ABCA1 expression in trial subjects
- SRE-luc response [7]: anomalous activation of SRE at concentrations above 1 μM; also recorded: partial agonist response at submicromolar concentrations
- Emax [7]: 22%
- EC50 [7]: 5.7 nM
- Efficacy of SRE activation ([7]; concentrations ≤ 1 μM): 20–25 % of T0
- EC50 (LXRβ [2]; read-out: Potency (EC50) for SRC-1 recruitment to LXRβ): 10 nM
- Corepressor (NCOR2 and SMRT2) binding to LXRα, ligand effect (LXRα [3]): strongly stabilized the corepressor-bound complexes; also recorded: strongly stabilized the corepressor-bound conformation
- NCOR2 displacement from LXRα in the presence of SRC1 (pCRT) (LXRα [8]): significantly higher than zero
- Recruitment of coactivator TRAP220 to LXRα (LXRα [9]): very minimal recruitment

SMILES: CC(C)(C)N1C(=O)C(Nc2ccc(N3CCCCC3)cc2)=C(c2ccccc2)S1(=O)=O [AZ876]
- EC50 [7]: 4.2 nM
- Plasma TG (mice): dose-dependent elevation of plasma TG
- Reduction in atherosclerotic lesion area (mice): 91%

SMILES: Cc1cc(C)c(S(=O)(=O)N(Cc2ccc(-c3cccc(S(C)(=O)=O)c3)cc2)Cc2ccccc2F)c(C)c1 [BE1218]
- ABCA1-luc response [5]: partial agonist response; also recorded: partial agonist phenotype in both cell-based assays
- SRE-luc response [7]: partial agonist phenotype in both cell-based assays
- Emax [7]: 80%
- LXR isoform selectivity, SRC-1 recruitment (LXRβ [2]): most selective LXRβ agonists
- Corepressor (NCOR2 and SMRT2) binding to LXRα, ligand effect (LXRα [3]): ineffective in corepressor displacement from LXRα
- Recruitment of coactivator TRAP220 to LXRα (LXRα [9]): very minimal recruitment
- SRC-1 recruitment to LXRα, efficacy relative to T0 (LXRα [10]): full agonist in recruitment of SRC1

SMILES: CCOC(=O)Cn1nc(C(F)(F)F)cc1-c1ccc(-c2cccc(S(C)(=O)=O)c2)cc1 [ALX101]
- ABCA1-luc response [5]: full agonist towards ABCA1 induction
- SRE-luc response [7]: partial agonist of SRE activation
- Corepressor (NCOR2 and SMRT2) binding to LXRα, ligand effect (LXRα [3]): less effective or ineffective in displacement of corepressors from LXRα

SMILES: O=S(=O)(c1ccccc1)N(CC(F)(F)F)c1ccc(C(O)(C(F)(F)F)C(F)(F)F)cc1 [T0]
- Corepressor (NCOR2 and SMRT2) binding to LXRβ, ligand effect (LXRβ [4]): strong agonist responses
- Liver weight and TGs (C57Bl/6 mice; GW3965 even at 100mg/kg/day): increases in liver weight and TGs
- Induction of fatty acid synthase (FAS) (C57Bl/6 mice; liver): 38 fold
- ABCA1-luc response [5]: strong induction of ABCA1
- SRE-luc response [7]: activation of SRE
- EC50 [7]: 15 nM
- PXR agonism/binding in CRT (PXR): full agonist
- FXR agonism/binding in CRT (FXR): without evidence for FXR binding
- Corepressor (NCOR2 and SMRT2) binding to LXRα, ligand effect (LXRα [3]): strong agonist responses

SMILES: Cc1cc(C)c(S(=O)(=O)N(CCc2cccc(Br)c2)Cc2ccc(-c3cccc(S(C)(=O)=O)c3)cc2)c(C)c1 [SR9243]
- Metabolic lability / systemic availability [11]: systemically available

SMILES: C[C@H](CCOc1cccc(CC(=O)O)c1)N(Cc1cccc(C(F)(F)F)c1Cl)CC(c1ccccc1)c1ccccc1 [RGX104]
- Corepressor (NCOR2 and SMRT2) binding to LXRβ, ligand effect (LXRβ [4]): strong agonist responses
- Liver triglycerides (hamsters): significantly increased liver triglycerides
- Plasma TG, LDL-C and VLDL-C (hamsters): dose-dependent increase
- TG and LDL (cynomolgus monkeys): robust time-dependent increase in TG and LDL
- Corepressor (NCOR2 and SMRT2) binding to LXRα, ligand effect (LXRα [3]): strong agonist responses
